Tests used:
[1] = test system: plasma; assay: Inhibition of plasma lipid peroxidation (cupric sulfate induced, thiobarbituric acid assay, method of Yagi et al.); type: biochemical; details: 0.1 mL of plasma, cupric sulfate 2 mM, 37°C for 2.5 hours or 18 hours; for IC50: read-out: Plas.Lipid Perox. IC₅₀; for Plas.Lipid Perox. ID₅₀: dose required to inhibit 50% of plasma lipid peroxidation
Procedure: (§1) Determine the degree of inhibition of LDL and plasma lipid peroxidation by [8]-gingerol and anti-[8]-gingerdiol by the method of Yagi et al. [Vitamins 39, 105 (1968)].
(§2) Incubate a 0.5 mL solution containing 250 micrograms (µg) of LDL or 0.1 mL of plasma with the test compound, in amounts varying from 0 to 250 µg, for 30 minutes at 24°C. To this mixture add 10 µL of a cupric sulfate solution (final concentration 18 µM in LDL assay, 2 mM in plasma assay) and incubate at 37°C for 2.5 hours or 18 hours. Determine the amount of peroxidation of LDL or plasma by the thiobarbituric acid assay. Calculate the dose of test compound required to inhibit 50% of LDL or plasma lipid peroxidation (ID₅₀) and the concentration of test compound required to inhibit 50% of LDL or plasma lipid peroxidation (IC₅₀).

[2] = test system: LDL; assay: Inhibition of LDL lipid peroxidation (cupric sulfate induced, thiobarbituric acid assay, method of Yagi et al.); type: biochemical; details: 250 µg LDL in 0.5 mL, cupric sulfate 18 µM, 37°C for 2.5 hours or 18 hours; for IC50: read-out: LDL Perox. IC₅₀; for LDL Perox. ID₅₀: dose required to inhibit 50% of LDL peroxidation
Procedure: as §1, §2

[3] = test system: aortas; assay: Antiatherogenic effect in the cholesterol-fed rabbit (Sudan IV stained aortic lesions); type: in vivo; details: rabbits fed 1% cholesterol chow with 0.5% (w/w) compound for 56 days, n=5
From the text: Feed rabbits with 1% cholesterol (w/w) in standard rabbit chow supplemented with (n=5) or without (n=6) 0.5% anti-[8]-gingerdiol (w/w) for 56 days. Each rabbit consumes 120 grams of food per day. Immediately following sacrifice by intravenous injection of sodium pentobarbital, dissect the aortas from the ascending arch to the […] bifurcation.
Remove extraneous adipose tissue, open the aortas longitudinally and rinse several times with saline. Stain the aortas with Sudan IV and photograph using the method described by Mao et al. [J.Med.Chem. 34, 302 (1991)]. Digitize the areas of sudanophilic lesions in the thoracic region of the aorta with a Magiscan image analysis system. Distinguish stained versus unstained areas on the basis of Sudan Red staining. Quantitate the corresponding lesioned and unlesioned areas accordingly.

[4] = Effect on serum cholesterol in the cholesterol-fed rabbit; type: in vivo
From the text: Feed rabbits with 1% cholesterol (w/w) in standard rabbit chow supplemented with (n=5) or without (n=8) 0.5% anti-[8]-gingerdiol (w/w). Each rabbit consumes 120 grams of food per day. Collect blood samples and determine cholesterol in freshly prepared serum using an enzymatic method described by Mao et al., Clin.Chem 29, 1890 (1983).

Structure (SMILES) | IC50 [1] | Plas.Lipid Perox. ID₅₀ [1] | IC50 [2] | LDL Perox. ID₅₀ [2] | % Lesions (±SEM) in Abdominal ([3]; abdominal aorta, control 28 ± 7) | % Lesions (±SEM) in Arch ([3]; aortic arch, control 83 ± 7) | % Lesions (±SEM) in Thoracic ([3]; thoracic aorta, control 62 ± 8) | Cholesterol (mg/dL±SEM) Day 0 ([4]; Day 0 (baseline), rabbits fed 1% cholesterol chow with 0.5% (w/w) compound, n=5) | Cholesterol (mg/dL±SEM) Day 10 ([4]; Day 10, rabbits fed 1% cholesterol chow with 0.5% (w/w) compound, n=5, control 790 ± 103) | Cholesterol (mg/dL±SEM) Day 28 ([4]; Day 28, rabbits fed 1% cholesterol chow with 0.5% (w/w) compound, n=5, control 2177 ± 97)
CCCCCCCC(O)CC(=O)CCc1ccc(O)c(OC)c1 (centres unmarked) [[8]-Gingerol, 1-(4'-Hydroxy-3'-methoxyphenyl)-5-hydroxy-3-dodecanone] | 8.3 µM | 5 nmol | 109 µM | 60 nmol | – | – | – | – | – | –
CCCCCCCC(O)CC(O)CCc1ccc(O)c(OC)c1 (stereo not drawn) [anti-[8]-Gingerdiol, Anti-1-(4'-hydroxy-3'-methoxyphenyl)-3,5-dodecanediol] | 16.6 µM | 10 nmol | 72 µM | 40 nmol | 24 ± 10% | 73 ± 12% | 38 ± 16% | 82 ± 12 mg/dL | 515 ± 154 mg/dL | 1615 ± 216 mg/dL

— patent EP0516082A2, “Gingerol and gingerdiol derivatives as hypocholesterolemic and antiatherosclerotic agents” (priority 1991, dated 1992)
